Results as given in PMC7321103, “In Vitro Metabolic Transformation of Pharmaceuticals by Hepatic S9 Fractions from Common Carp (Cyprinus carpio)” (Molecules, 2020).
Where two headings read alike, the source gives them in different places.

Key:
[1] = test system: common carp hepatic S9 fraction; assay: Metabolite formation in common carp hepatic S9 fraction (not induced and BNF induced); type: in vitro ADME, common carp (Cyprinus carpio); conditions: for Metabolites Concentration, BNF Fish S9: carp induced with 50 mg/kg BNF; for Metabolites Concentration, BNF Fish S9 / Metabolites Concentration, Fish S9: 2 µM parent pharmaceutical, 1 h, 21 °C; for Metabolites Concentration, Fish S9: not induced carp, 1 mg protein
Experimental: Fish. Fish were collected from a fishpond with a low concentration level of pharmaceuticals (305-880 ng/POCIS). Thus, fish were stocked in the pond for 1 year with a natural photoperiod. The fish were allowed to eat and swim freely in the pond without interaction with humans and avoiding stress conditions. In total, 1-year-old common […] = 12) weighing 695 ± 116 g (mean ± standard deviation) and length 330 ± 19 mm were collected during spring 2018. Additionally, β-naphtaflavone (BNF) was administrated into four fish at levels of 50 mg/kg of BNF in corn oil. Following administration, individuals were kept in a separate aquaria for 48 h, in order to achieve CYP1A1 induction. The fish were then sacrificed according to the ethical rules of the EU harmonized Animal Welfare Act of the Czech Republic. The unit is licensed (No. 53100/2013-MZE-17214), according to the Czech National Directive (the Law against Animal Cruelty, No. 246/1992). Before sampling, fish were anesthetized in an ice bath, and their spinal cords were immediately cut. Fish was bloodless and hepatic tissues were collected and stored at -80 °C before use for the preparation of S9 fraction. Hepatic tissue (approx. 1.2 g) of twelve individual common […] two individual sheep were homogenized in 10 mM Tris-HCl buffer, pH 7.4, containing 250 mM sucrose separately using an T-25 Ultra Turrax homogenizer Ika (Staufen, Germany) followed by centrifugation at 10,000× g for 15 min at 4 °C to obtain S9 fractions. The protein concentration in S9 fractions was determined by the colorimetric method according to Smith et al. at 595 nm. The S9 fractions were diluted to 10 mg/mL protein content. To account for the gender effect, four piscine S9 fractions were combined in one pool with the same ratio of males/females (1:1). The incubations were performed using three S9 pools from common carp. One pool was prepared from ovine S9 fractions. […] According to Hou et al. […] The concentrations of the parent compound and its main metabolites (metoprolol acid, N-desmethylcitalopram, norsertraline, and O-desmethylvenlafaxine) were determined by LC HRMS (Thermo Fisher Scientific, San Jose, CA, USA). The chromatographic separation was performed on a Hypersil Gold aQ analytical column (50 × 2.1 mm; 5 μm particles, Thermo Fisher Scientific). […] A heated electrospray ionization (HESI) source was used for the ionization of the target compounds with a spray voltage of 3.5 kV and nitrogen as the sheath gas (40 arbitrary units), auxiliary gas (10 arbitrary units), and collision gas. The full scan mode with high resolution (70000 FWHM) in range 100-750 m/z was used with the AGC target 3e6, and the maximum filling time 50 ms. Data acquisition was performed with Xcalibur 4.3 Software, and data processing was performed using TraceFinder 3.3 Software (both Thermo Fisher Scientific, San Jose, CA, USA). Internal standard and matrix matching standard methods were used for the quantification of target analytes.

[2] = test system: sheep hepatic S9 fraction; assay: Metabolite formation in sheep hepatic S9 fraction; type: in vitro ADME; conditions: 2 µM parent pharmaceutical, 1 mg protein, 1 h, 37 °C
Experimental: Sheep. Hepatic tissue from one male and one female Suffolk sheep (age, 2 years; weight 70-80 kg) were collected at a slaughterhouse in Vodňany town, Czech Republic, and stored at -80 °C. Sheep is a relatively new animal model, which has started to be used in veterinarian investigations related to drug-drug interactions, as well as for effective therapy and the limitation of drug-resistance development. Sheep phase I biotransformation enzymes, including CYPs-dependent metabolic activities in sheep liver, were already characterized by Szotakova et al., Maté et al. and Stuchlíková et al.. The use of the S9 fraction from sheep hepatic tissue could represent the mammalian metabolic system in relation to selected pharmaceuticals. […] The protein concentration in S9 fractions was determined by the colorimetric method according to Smith et al. at 595 nm. […] The concentrations of the parent compound and its main metabolites (metoprolol acid, N-desmethylcitalopram, norsertraline, and O-desmethylvenlafaxine) were determined by LC HRMS (Thermo Fisher Scientific, San Jose, CA, USA). […] Internal standard and matrix matching standard methods were used for the quantification of target analytes.

[3] = Kinetics of N-desmethylcitalopram formation from citalopram in common carp S9; type: in vitro ADME, common carp (Cyprinus carpio); conditions: common carp (Cyprinus carpio), hepatic S9 fraction, Michaelis-Menten fit, citalopram 0.01-100 μM
Experimental: (§1) Kinetic analysis using multiple substrate concentrations was conducted only with citalopram using the same procedure as above-described. The substrate concentrations were 0.01, 0.03, 0.1, 1, 10, 50, 75, and 100 μM of citalopram.
(§2) The data were analyzed using non-linear regression analysis (GraphPad Prism version 4.0 for Windows, GraphPad Software, San Diego, CA, USA). The data were fitted to the Michaelis-Menten equation and two enzyme models. The goodness of fit was assessed by comparison of the coefficient of determination (r^2). Visual analysis of Eadie-Hofstee plots was used to estimate whether one or more enzymes participate in the reaction.

[4] = test system: common carp hepatic S9 fraction; assay: as above; type: in vitro ADME, common carp (Cyprinus carpio); conditions: Michaelis-Menten fit, citalopram 0.01-100 μM
Experimental: as §1, §2

human hepatic microsomes = test system: human hepatic microsomes; design: method as in PMID 10494454; conditions: cited from earlier work
[5] = design: method as in PMID 29729738; conditions: fish from pond receiving WWTP water; cited from earlier work
[6] = Control incubation of pharmaceutical without S9 fraction; conditions: 2 µM parent pharmaceutical, no S9, 1 h
Experimental: To investigate the formation of metabolites, one concentration of pharmaceutical (2 μM) was incubated with 1 mg of protein in piscine or ovine S9 fraction, 1 mM NADPH, and 0.3 mM UDPGA in a potassium phosphate buffer (50 mM, 7.4 pH) (Table 2). The total volume of each incubation was 0.5 mL. The incubation mixture was vortexed and incubated for 1 h in a water bath (at 21 °C for fish and 37 °C for ovine). Then, the reaction was stopped by the addition of 0.5 mL ice-cold methanol, vortexed, and centrifuged at 10,000× g for 10 min. […] Sheep hepatic S9 fraction was used as a positive control, because sheep S9 fractions are known to metabolise the studied compounds. […] The supernatant was filtrated (0.45 μm regenerated cellulose filter) and the internal standard for chemical analyses was added. […] S9 fractions with TNBP were incubated under the same conditions as other pharmaceuticals.

CYP1A1 = assay: Inhibition of N-desmethylcitalopram formation by ellipticine in common carp S9; type: biochemical, common carp (Cyprinus carpio); conditions: citalopram 5 μM
Experimental: Ellipticine (a specific inhibitor of mammalian and piscine CYP1A1) was used to investigate if CYP1A1 was responsible for metabolite formation. Incubations were performed only with citalopram. Three concentrations of ellipticine were used in the final incubations: 0.125, 1.25, and 12.5 μM. The choice of these concentrations was based on the previous results. The degree of inhibition was assessed by comparison of metabolite formation in the presence and absence of inhibitor. The incubation without inhibitor contained the same amount of methanol as in the incubations with inhibitor (0.5% from total incubation volume).

CYP1A = test system: CYP1A; design: method as in PMID 29704845; conditions: rainbow trout microsomal fraction; cited from earlier work
CYP3A-like = test system: CYP3A-like; design: method as in PMID 29704845; conditions: rainbow trout microsomal fraction; cited from earlier work

CC(C)NCC(O)COc1ccc(CC(=O)O)cc1 (stereo not shown) [Metoprolol acid, metoprolol acid]
Metabolite formation, fold reduction in induced fish vs not induced S9 fraction [1]: 3.4 fold

CNCCCC1(c2ccc(F)cc2)OCc2cc(C#N)ccc21 (stereo not shown) [N-desmethylcitalopram]
Metabolites Concentration, Sheep S9 [2]: 2309 pmol/min/mg | Metabolite formation, fold higher in induced fish than in not induced S9 fraction ([1]; BNF induced vs not induced carp S9): 5.3 fold | Metabolites Concentration, BNF Fish S9 [1]: 1557 pmol/min/mg | Metabolites Concentration, Fish S9 [1]: 295 pmol/min/mg | Km [3]: 29.7 ± 4.6 µM | Vmax of N-desmethylcitalopram formation [4]: 1781 ± 90 pmol/min/mg | Vmax for N-desmethylcitalopram, monophasic model (human hepatic microsomes; monophasic model): 183 to 281 pmol/min/mg | Average concentration in hepatic tissue of common carp [5]: 2.6 ± 1.4 ng/g wet weight | Metabolites Concentration, Control (without S9) [6]: <LOQ

N[C@H]1CC[C@@H](c2ccc(Cl)c(Cl)c2)c2ccccc21 [Norsertraline, norsertraline]
Metabolite formation, fold higher in induced fish than in not induced S9 fraction [1]: 1.7 fold

CN(C)CC(c1ccc(O)cc1)C1(O)CCCCC1 (stereo not shown) [O-desmethylvenlafaxine]
Metabolites Concentration, Sheep S9 [2]: 823 pmol/min/mg | Metabolites Concentration, BNF Fish S9 [1]: <LOQ | Metabolites Concentration, Fish S9 [1]: <LOQ | Metabolites Concentration, Control (without S9) [6]: <LOQ

CN(C)CCCC1(c2ccc(F)cc2)OCc2cc(C#N)ccc21 (stereo not shown) [citalopram, Citalopram]
Vmax of citalopram N-demethylation, first enzyme (human hepatic microsomes; biphasic model): 25 pmol/min/mg | Vmax of citalopram N-demethylation, second enzyme (human hepatic microsomes; biphasic model): 158 pmol/min/mg | Km (human hepatic microsomes; biphasic model, read-out: Km of citalopram N-demethylation, first enzyme): 17.3 µM | Km (human hepatic microsomes; biphasic model, read-out: Km of citalopram N-demethylation, second enzyme): 185 µM | Average concentration in hepatic tissue of common carp [5]: 3.1 ± 2.9 ng/g wet weight

Cc1c2ccncc2c(C)c2c1[nH]c1ccccc12 [ellipticine]
Reduction of N-desmethylcitalopram formation (CYP1A1; 0.125 μM ellipticine): 30 ± 10% | Inhibition of N-desmethylcitalopram formation (CYP1A1; 1.25 μM ellipticine): completely inhibited | Inhibition of N-desmethylcitalopram formation (CYP1A1; 12.5 μM ellipticine): completely inhibited

COc1ccc(C(CN(C)C)C2(O)CCCCC2)cc1 (stereo not shown) [venlafaxine]
Effect on EROD activity (CYP1A): did not alter | Effect on BFCOD activity (CYP3A-like): did not alter
